Test results reported in patent publication US9302999B2, “Substituted triazoles as herbicides” (E. I. DU PONT DE NEMOURS AND COMPANY, priority 2012, dated 2016).
Where two headings read alike, the source gives them in different places.

How the values were obtained:
Assay type in all cases: in vivo
rice (Oryza sativa) = test: Test C flooded paddy test: rice; conditions: scale 0 to 100 (0 no effect, 100 complete control); for plant injury at 125 g/ha / plant injury at 250 g/ha / plant injury at 62 g/ha: Oryza sativa, read-out: Plant response rating, Rice
Outline: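 2-leaf stage plants; pots flooded 3 cm above soil; compound applied into paddy water, depth maintained. Greenhouse 13–15 d. Visual rating vs controls, 0–100 (0 = no effect, 100 = complete control); dash = no result.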

[1] = tested on: bromegrass, downy (downy bromegrass, Bromus tectorum); test: Test D pre-/postemergence: bromegrass, downy
From the text: (§1) Seeds of plant species selected from bluegrass (annual bluegrass, Poa annua), blackgrass (Alopecurus myosuroides), canarygrass (Phalaris minor), chickweed (common chickweed, Stellaria media), galium (catchweed bedstraw, Galium aparine), bromegrass, downy (downy bromegrass, Bromus tectorum), field poppy (Papaver rhoeas), field violet (Viola arvensis), foxtail, green (green foxtail, Setaria viridis), deadnettle (henbit deadnettle, Lamium amplexicaule), ryegrass, Italian (Italian ryegrass, Lolium multiflorum), kochia (Kochia scoparia), lambsquarters (Chenopodium album), oilseed rape (Brassica napus), pigweed (Amaranthus retroflexus), Russian thistle (Salsola iberica), chamomile (scentless chamomile, Matricaria inodora), speedwell (bird's-eye speedwell, Veronica persica), barley, spring (spring barley, Hordeum vulgare), wheat, spring (spring wheat, Triticum aestivum), buckwheat, wild (wild buckwheat, Polygonum convolvulus), mustard, wild (wild mustard, Sinapis arvensis), oat, wild (wild oat, Avena fatua), radish, wild (wild radish, Raphanus raphanistrum), windgrass (Apera spica-venti), barley, winter (winter barley, Hordeum vulgare), and wheat, winter (winter wheat, Triticum aestivum) were planted into a silt loam soil and treated preemergence with test chemicals formulated in a non-phytotoxic solvent mixture which included a surfactant. At the same time, these same crop and weed species were planted in pots containing the planting medium comprising spaghnum peat moss, vermiculite, wetting agent and starter nutrients and treated with postemergence applications of the test chemicals formulated in the same manner. Plants ranged in height from 2 to 18 cm (1- to 4-leaf stage).
(§2) Treated plants and controls were maintained in a controlled growth environment for 14 to 21 days after which time all species were compared to controls and visually evaluated. Plant response ratings, summarized in Table D, are based on a scale of 0 to 100 where 0 is no effect and 100 is complete control. A dash (-) response means no test result.

[2] = tested on: deadnettle (henbit deadnettle, Lamium amplexicaule); test: Test D pre-/postemergence: deadnettle
From the text: as §1, §2

[3] = tested on: chamomile (scentless chamomile, Matricaria inodora); test: Test D pre-/postemergence: chamomile
From the text: as §1, §2

[4] = Flood (flooded paddy test), 62 g ai/ha, visual rating after 13 to 15 days
[5] = Flood (flooded paddy test), 125 g ai/ha, visual rating after 13 to 15 days
[6] = Flood (flooded paddy test), 250 g ai/ha, visual rating after 13 to 15 days
[7] = Postemergence, 31 g ai/ha, scale 0 to 100 (0 no effect, 100 complete control)
[8] = Postemergence, 62 g ai/ha, scale 0 to 100 (0 no effect, 100 complete control)
[9] = Postemergence, 125 g ai/ha, scale 0 to 100, 0 no effect, 100 complete control
[10] = Postemergence, 250 g ai/ha, scale 0 to 100 (0 no effect, 100 complete control)
[11] = Postemergence, 16 g ai/ha, scale 0 to 100
[12] = Preemergence, 31 g ai/ha, scale 0 to 100, 0 no effect, 100 complete control
[13] = Preemergence, 62 g ai/ha, scale 0 to 100
[14] = Preemergence, 125 g ai/ha, scale 0 to 100
[15] = Preemergence, 250 g ai/ha, scale 0 to 100
[16] = Preemergence, 16 g ai/ha, scale 0 to 100, 0 no effect, 100 complete control

Row | Structure (SMILES) | Plant response rating: Bromegrass, Downy [1, 7] | Plant response rating: Bromegrass, Downy [1, 8] | Plant response rating: Bromegrass, Downy [1, 9] | Plant response rating: Bromegrass, Downy [1, 10] | Plant response rating, Bromegrass, Downy [1, 11] | Plant response rating: Deadnettle [2, 7] | Plant response rating: Deadnettle [2, 8] | Plant response rating: Deadnettle [2, 9] | Plant response rating: Deadnettle [2, 10] | Plant response rating, Deadnettle [2, 11] | Plant response rating: Chamomile [3, 7] | Plant response rating: Chamomile [3, 8] | Plant response rating: Chamomile [3, 9] | Plant response rating: Chamomile [3, 10] | Plant response rating, Chamomile [3, 11] | plant injury at 250 g/ha (rice (Oryza sativa); [6]) | Plant response rating, Bromegrass, Downy [1, 12] | Plant response rating, Bromegrass, Downy [1, 13] | Plant response rating, Bromegrass, Downy [1, 14] | Plant response rating, Deadnettle [2, 12] | also measured
1 | Cc1nn(-c2ccc(C(F)(F)F)cn2)nc1Oc1ccnc(C(F)(F)F)c1 [Compound 23] | 10 | 15 | 20 | 25 | 0 | 30 | 50 | 60 | 90 | 20 | 0 | 0 | 0 | 5 | 0 | – | – | – | – | – | Plant response rating, Rice (rice (Oryza sativa); [4]): 0; Plant response rating, Rice (rice (Oryza sativa); [5]): 0; Plant response rating, Rice (rice (Oryza sativa); [6]): 30; Plant response rating, Rice (rice (Oryza sativa); Flood, 31 g ai/ha): 0
2 | COCc1nn(-c2ccc(C(F)(F)F)cc2)nc1Oc1cccc(OC(F)(F)F)c1 [Compound 115, 4-(methoxymethyl)-5-[3-(trifluoromethoxy)phenoxy]-2-[4-(trifluoromethyl)phenyl]-2H-1,2,3-triazole] | – | – | – | – | – | – | – | – | – | – | – | – | – | – | – | 40% | – | – | – | – | plant injury at 125 g/ha (rice (Oryza sativa); [5]): 30%; plant injury at 62 g/ha (rice (Oryza sativa); Flood, 62 g ai/ha): 20%
3 | FCc1nn(-c2ccc(C(F)(F)F)cc2)nc1Oc1cccc(OC(F)(F)F)c1 [Compound 116, 4-(fluoromethyl)-5-[3-(trifluoromethoxy)phenoxy]-2-[4-(trifluoromethyl)phenyl]-2H-1,2,3-triazole] | – | – | – | – | – | – | – | – | – | – | – | – | – | – | – | 30% | – | – | – | – | plant injury at 125 g/ha (rice (Oryza sativa); [5]): 20%; plant injury at 62 g/ha (rice (Oryza sativa); Flood, 62 g ai/ha): 0%
4 | FC(F)(F)COc1nn(-c2ccc(C(F)(F)F)cc2)nc1Cc1ccnc(C(F)(F)F)c1 [Compound 14, 4-[[5-(2,2,2-trifluoroethoxy)-2-[4-(trifluoromethyl)phenyl]-2H-1,2,3-triazol-4-yl]methyl]-2-(trifluoromethyl)pyridine] | 15 | 20 | 30 | 40 | – | 25 | 40 | 100 | 100 | – | 20 | 60 | 100 | 100 | – | 45% | 0 | 10 | 20 | 60 | plant injury at 62 g/ha (rice (Oryza sativa); [4]): 40%; Plant response rating, Bromegrass, Downy [1, 15]: 30; Plant response rating, Deadnettle [2, 13]: 70; Plant response rating, Deadnettle [2, 14]: 100; Plant response rating, Deadnettle [2, 15]: 100
5 | Cc1nn(-c2ccc(C(F)(F)F)cc2)nc1Oc1csc(C(F)(F)F)c1 [Compound 1, 4-methyl-2-[4-(trifluoromethyl)phenyl]-5-[[5-(trifluoromethyl)-3-thienyl]oxy]-2H-1,2,3-triazole] | – | – | – | – | – | – | – | – | – | – | – | – | – | – | – | 0% | – | – | – | – | plant injury at 62 g/ha (rice (Oryza sativa); [4]): 0%
6 | COc1nn(-c2ccc(C(F)(F)F)cc2)nc1Cc1ccnc(C(F)(F)F)c1 [Compound 15, 4-[[5-methoxy-2-[4-(trifluoromethyl)phenyl]-2H-1,2,3-triazol-4-yl]methyl]-2-(trifluoromethyl)pyridine] | 10 | 10 | 20 | 40 | 5 | 75 | 98 | 100 | 100 | 50 | 0 | 0 | 25 | 100 | 0 | 50% | 0 | 0 | 0 | 10 | plant injury at 62 g/ha (rice (Oryza sativa); [4]): 45%; Plant response rating, Bromegrass, Downy [1, 15]: 40; Plant response rating, Deadnettle [2, 13]: 40; Plant response rating, Deadnettle [2, 14]: 95; Plant response rating, Deadnettle [2, 15]: 100
7 | COc1nn(-c2ccc(C(F)(F)F)cc2)nc1Cc1ccnc(C(F)F)c1 [Compound 138] | 20 | 30 | 40 | 50 | 10 | 50 | 75 | 80 | 95 | 50 | 10 | 30 | 60 | 80 | 0 | – | – | – | – | – | –
8 | Cc1nn(-c2ccc(C(F)(F)F)cc2)nc1Oc1ccnc(C(F)(F)F)c1 [Compound 120] | 10 | 10 | 20 | 25 | 5 | 90 | 90 | 100 | 100 | 30 | 25 | 40 | 80 | 90 | 10 | – | 0 | 5 | 25 | 85 | Plant response rating, Rice (rice (Oryza sativa); [5]): 70; Plant response rating, Rice (rice (Oryza sativa); [6]): 80; Plant response rating, Rice (rice (Oryza sativa); Flood, 62 g ai/ha): 60; Plant response rating, Bromegrass, Downy [1, 16]: 0; Plant response rating, Bromegrass, Downy [1, 15]: 60; Plant response rating, Deadnettle [2, 16]: 0; Plant response rating, Deadnettle [2, 13]: 100; Plant response rating, Deadnettle [2, 14]: 100; Plant response rating, Deadnettle [2, 15]: 100; Plant response rating, Chamomile [3, 16]: 0; Plant response rating, Chamomile [3, 12]: 10; Plant response rating, Chamomile [3, 13]: 20; Plant response rating, Chamomile [3, 14]: 100; Plant response rating, Chamomile [3, 15]: 100
9 | Cc1nn(-c2ccc(F)c(C(F)(F)F)c2)nc1Cc1ccnc(C(F)(F)F)c1 [Compound 156] | 10 | 15 | 35 | – | 10 | 85 | 100 | 100 | – | 70 | 70 | 75 | 100 | – | 50 | – | 5 | 20 | 95 | 15 | Plant response rating, Bromegrass, Downy [1, 16]: 0; Plant response rating, Deadnettle [2, 16]: 5; Plant response rating, Deadnettle [2, 13]: 100; Plant response rating, Deadnettle [2, 14]: 100; Plant response rating, Chamomile [3, 16]: 10; Plant response rating, Chamomile [3, 12]: 55; Plant response rating, Chamomile [3, 13]: 100; Plant response rating, Chamomile [3, 14]: 100
